From paper PMC8733726, “Dioctanoyl Ultrashort Tetrabasic β-Peptides Sensitize Multidrug-Resistant Gram-Negative Bacteria to Novobiocin and Rifampicin” (Frontiers in Microbiology, 2021) come the findings set out here.

For data set [1], the system named is MDR clinical isolates of A. baumannii. In kind it is cell-based, Acinetobacter baumannii. The settings on record: MDR clinical isolates of, 18 h. On the procedure: (§1) The adjuvant activities of dUSTBβPs were evaluated using checkerboard assay as previously described ([Berry et al., 2019]). Overnight-grown bacterial culture diluted in saline to 0.5 McFarland turbidity was successively diluted 1:50 in MHB to achieve a final concentration of 5 × 10^5 CFU/mL for inoculation. The antibiotic and adjuvant were serially diluted 2-fold along the x-axis and y-axis, respectively, resulting in varying concentrations of both agents in each well. Subsequently, the 96-well plate was incubated with equal volumes of bacterial inoculum at 37°C for 18 h. Confirmation of turbidity was done using an EMax Plus microplate reader (Molecular Devices, United States) at a wavelength of 590 nm. Wells comprising MHB alone or in the presence of bacterial cells were used as negative or positive controls, respectively. Fractional inhibitory concentration index (FICI) is determined by adding the FICs of both antibiotic and adjuvant. The FIC of the antibiotic is calculated by dividing the MIC of the antibiotic in the presence of the adjuvant by the MIC of the antibiotic alone. Similarly, the FIC of the adjuvant is calculated by dividing the MIC of the adjuvant in the presence of the antibiotic by the MIC of the adjuvant alone. FICI ≤ 0.5, 0.5 < x ≤ 4, and >4 were deemed synergistic, additive, and antagonistic, respectively ([Meletiadis et al., 2010]).

A further data set can be described thus: in vitro. The conditions noted are these: human, plasma. On the procedure: Stability of dUSTBβP 3 was evaluated in human plasma. […] The supernatant was analyzed by HPLC-tandem mass spectrometry using selected reaction monitoring. The % compound remaining was determined by comparing peak areas at different time points to time zero. Assuming first-order kinetics, the half-life was extrapolated from the slope of the initial linear range of the logarithmic curve of compound remaining over time. Experiments were performed in duplicates, and the reference compounds include propantheline and propoxycaine.

For data set [2], the system named is wild-type E. coli ATCC 25922. Description: microbe, parasite or virus in culture. In kind it is cell-based, Escherichia coli. The conditions noted are these: ATCC 25922; for MICcombo: antibiotic with dUSTBβP 3 at 8 μg/mL; for MIC: Escherichia coli, ATCC25922, 18 h, antibiotic alone (Supplementary Table 7), read-out: MICantibiotic. Here is the method:
as §1

For data set [3], the system named is MDR A. baumannii clinical isolates. Description: Resistance phenotype (MICs of antibiotics) of MDR clinical isolates. In kind it is cell-based, Acinetobacter baumannii. The conditions noted are these: Acinetobacter baumannii.
For data set [4], the system named is wild-type A. baumannii ATCC 17978. As to the kind of experiment: Checkerboard assay. In kind it is cell-based, Acinetobacter baumannii. The conditions noted are these: ATCC 17978; for MICcombo: antibiotic with dUSTBβP 3 at 8 μg/mL; for MIC: Acinetobacter baumannii, ATCC17978, 18 h, antibiotic alone (Supplementary Table 7), read-out: MICantibiotic.
Text: as §1, with “Overnight-grown” for “The adjuvant activities of dUSTBβPs were evaluated using checkerboard assay as previously described ([Berry et al., 2019]). Overnight-grown”, “Subsequently, the 96-well plate was incubated with equal volumes of bacterial inoculum at 37°C for 18 h.” left out, “alone.” for “alone. FICI ≤ 0.5, 0.5 < x ≤ 4, and >4 were deemed synergistic, additive, and antagonistic, respectively ([Meletiadis et al., 2010]).”

Data set [5] concerns MDR K. pneumoniae clinical isolates. As to the kind of experiment: Resistance phenotype (MICs of antibiotics) of MDR clinical isolates. In kind it is cell-based, Klebsiella pneumoniae. The settings on record: Klebsiella pneumoniae, read-out: MIC.
For data set [6], the system named is wild-type P. aeruginosa PAO1. As to the kind of experiment: microbe, parasite or virus in culture. In kind it is cell-based, Pseudomonas aeruginosa. The conditions noted are these: PAO1; for MICcombo: antibiotic with dUSTBβP 3 at 8 μg/mL; for MIC: Pseudomonas aeruginosa, 18 h, antibiotic alone (Supplementary Table 7), read-out: MICantibiotic.
Text: as §1, with “Overnight-grown” for “The adjuvant activities of dUSTBβPs were evaluated using checkerboard assay as previously described ([Berry et al., 2019]). Overnight-grown”, “Subsequently, the 96-well plate was incubated with equal volumes of bacterial inoculum at 37°C for 18 h.” left out, “alone.” for “alone. FICI ≤ 0.5, 0.5 < x ≤ 4, and >4 were deemed synergistic, additive, and antagonistic, respectively ([Meletiadis et al., 2010]).”

The subject of data set [7] is MDR E. cloacae clinical isolates. Description: Resistance phenotype (MICs of antibiotics) of MDR clinical isolates. In kind it is cell-based, Enterobacter cloacae. The settings on record: Enterobacter cloacae, read-out: MIC.
Data set [8] deals with MDR P. aeruginosa clinical isolates. The description is as above. In kind it is cell-based, Pseudomonas aeruginosa. The conditions noted are these: Pseudomonas aeruginosa, read-out: MIC.
Data set [9] concerns MDR E. coli clinical isolates. Described as above. In kind it is cell-based, Escherichia coli. The settings on record: Escherichia coli, read-out: MIC.

≈ marks a conversion by molar mass, not a printed value. Where two headings read alike, the source gives them in different places.

For `CCCCCCCC(=O)N[C@@H](CCCNC(=N)N)C(=O)NCCCN(CCCNC(=O)[C@H](CCCNC(=N)N)NC(=O)CCCCCCC)CC(=O)N[C@@H](CCCNC(=N)N)C(N)=O` [di(C8-Arg)-Nbap-Arg-NH2], the “MIC of compound alone” value in data set [1] turned out to be 16 µg/mL. The molecule also registered a fraction remaining at 2 h, 1 μM in “in vitro” of 39.5 ± 7.4%.

Turning to `CN(C)c1ccc(O)c2c1C[C@H]1C[C@H]3[C@H](N(C)C)C(O)=C(C(N)=O)C(=O)[C@@]3(O)C(O)=C1C2=O` [Minocycline], the MICcombo is 0.063 µg/mL in [2], 0.25 µg/mL in data set [4] and 1 µg/mL in [6]. For the same molecule, the MIC is 0.5 µg/mL in [2]; 0.125 µg/mL (≈ 0.273 µM) in data set [3]; 1 µg/mL (≈ 2.19 µM) in data set [3] (110193, read-out: MIC); 0.25 µg/mL (≈ 0.546 µM) in data set [3] (AB027, read-out: MIC); 0.25 µg/mL (≈ 0.546 µM) in [3] (AB031, read-out: MIC); 4 µg/mL (≈ 8.74 µM) in data set [3] (LAC-4, read-out: MIC). Besides, the MIC turned out to be 0.5 µg/mL in data set [4]; 2 µg/mL (≈ 4.37 µM) in [5] (113250); 2 µg/mL (≈ 4.37 µM) in [5] (113254); 64 µg/mL (≈ 140 µM) in [5] (116381); 16 µg/mL (≈ 35 µM) in data set [6]; 32 µg/mL (≈ 69.9 µM) in [7] (117029). The MIC in data set [8] (259-96196) amounted to 32 µg/mL (≈ 69.9 µM); in data set [8] (262-101856), 64 µg/mL (≈ 140 µM); in data set [8] (264-104354) it was 32 µg/mL (≈ 69.9 µM); in data set [8] (91433), 16 µg/mL (≈ 35 µM); in [8] (114228) it was 32 µg/mL (≈ 69.9 µM); in data set [9] (94393 (mcr-1 +)) it was 2 µg/mL (≈ 4.37 µM). Further, the values for the MIC in data set [9] (94474 (mcr-1 +)) and in data set [9] (107115) were 64 µg/mL (≈ 140 µM) and 32 µg/mL (≈ 69.9 µM), respectively.

Turning to `C[C@H]1c2cccc(O)c2C(=O)C2=C(O)[C@]3(O)C(=O)C(C(N)=O)=C(O)[C@@H](N(C)C)[C@@H]3[C@@H](O)[C@@H]21` [Doxycycline], the MICcombo in data set [2] was 0.25 µg/mL; in [4], 0.25 µg/mL; in [6], 0.5 µg/mL. Also, the MIC in data set [2] was 1 µg/mL; in [3] (LAC-4, read-out: MIC) it was less than 4 µg/mL; in [4] it was 0.25 µg/mL; in data set [5] (113250), 2 µg/mL (≈ 4.5 µM); in [5] (113254), 128 µg/mL (≈ 288 µM); in [5] (116381), 1 µg/mL (≈ 2.25 µM). The MIC is 8 µg/mL (≈ 18 µM) in data set [6]; greater than 32 µg/mL in data set [7] (117029); 4 µg/mL (≈ 9 µM) in data set [7] (118564); greater than 32 µg/mL in [7] (121187); 32 µg/mL (≈ 72 µM) in [8] (259-96196); 1020 µg/mL (≈ 2300 µM) in data set [8] (262-101856). Moreover, the MIC in data set [8] (264-104354) is 64 µg/mL (≈ 144 µM); in data set [8] (91433), 32 µg/mL (≈ 72 µM); in data set [8] (114228), 16 µg/mL (≈ 36 µM); in data set [9] (94393 (mcr-1 +)) it was 4 µg/mL (≈ 9 µM); in data set [9] (94474 (mcr-1 +)), greater than 32 µg/mL; in [9] (107115) it was greater than 32 µg/mL.

What is called fraction remaining is what is left of the initial amount, in per cent.
